Biological target: T1, human RXFP1 (Homo sapiens, UniProt Q9HBX9)
T1 sequence (Q9HBX9 1-757): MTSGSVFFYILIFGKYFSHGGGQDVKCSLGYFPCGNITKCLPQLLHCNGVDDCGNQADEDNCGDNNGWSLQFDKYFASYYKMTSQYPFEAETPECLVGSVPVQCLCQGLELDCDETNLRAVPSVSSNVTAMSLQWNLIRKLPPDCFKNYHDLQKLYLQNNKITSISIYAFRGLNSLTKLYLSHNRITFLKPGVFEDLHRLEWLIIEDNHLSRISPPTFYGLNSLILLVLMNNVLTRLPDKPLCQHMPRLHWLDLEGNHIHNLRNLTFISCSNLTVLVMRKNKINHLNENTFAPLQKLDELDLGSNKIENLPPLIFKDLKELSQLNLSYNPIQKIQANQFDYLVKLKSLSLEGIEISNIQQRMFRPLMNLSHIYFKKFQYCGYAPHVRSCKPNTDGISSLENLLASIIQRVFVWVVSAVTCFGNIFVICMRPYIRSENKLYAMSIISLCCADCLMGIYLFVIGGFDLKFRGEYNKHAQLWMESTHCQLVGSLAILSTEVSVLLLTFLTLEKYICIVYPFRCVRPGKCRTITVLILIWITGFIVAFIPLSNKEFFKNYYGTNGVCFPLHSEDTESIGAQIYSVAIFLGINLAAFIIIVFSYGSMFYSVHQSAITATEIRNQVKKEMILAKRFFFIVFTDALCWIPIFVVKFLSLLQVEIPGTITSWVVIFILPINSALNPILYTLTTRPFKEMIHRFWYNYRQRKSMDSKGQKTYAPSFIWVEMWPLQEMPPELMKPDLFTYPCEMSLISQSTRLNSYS
Test: RXFP1 Hu cAMP (Test A)
Type: cell-based
Design: expressed in transfected cells; host or cells: Jump-In T-REx CHO-K1 cells (ThermoFisher), induced with 10 ng/ml doxycycline for 24 h
Conditions: RXFP1 Hu cAMP; for EC50: read-out: Test A EC50
Procedure, shortened: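 CHO-K1 (Jump-In T-REx), RXFP1 induced w/ 10 ng/ml doxycycline 24 h, cryopreserved. 0.5 mM IBMX final. cAMP by HTRF, 2 h RT, std curve.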

Row | SMILES | Test A Sinf [%] | EC50 [nM]
1 | CC1(CNC(=O)C2C3CCC(CC3)C2NC(=O)c2cc(O[C@H]3CC[C@@](C)(C(=O)O)CC3)c(C#N)cc2F)CCC1 (single isomer, unassigned) [Example 588, (1R,4s)-4-(2-Cyano-4-fluoro-5-(((2S*,3R*)-3-(((1-methylcyclobutyl)methyl)carbamoyl)bicyclo[2.2.2]octan-2-yl)carbamoyl)phenoxy)-1-methylcyclohexane-1-carboxylic acid] | 95 | 7.6
2 | COc1cc(F)c(-c2ccc(C(=O)O)cc2)cc1C(=O)N[C@H]1[C@@H]2CC[C@@H](C2)[C@H]1C(=O)Nc1ccc(F)c(C(F)(F)F)c1 (single isomer, unassigned) [Example 590] |  | > 40000
3 | COc1cc(F)c(O[C@H]2CC[C@@](C)(C(=O)O)CC2)cc1C(=O)N[C@@H]1C[C@H](OC)C[C@@H]1C(=O)Nc1cccc(S(=O)(=O)C(F)(F)F)c1 (stereo in doubt) [Example 335] | 104 | 540
4 | COc1cc(C#N)c(O[C@H]2CC[C@@](C)(C(=O)O)CC2)cc1C(=O)N[C@@H]1[C@H]2CC[C@H](C2)[C@@H]1C(=O)NC(C)(C)c1ccccc1 [Example 108] | 106 | 340
5 | COc1cc(C#N)c(O[C@H]2CC[C@@](C)(C(=O)O)CC2)cc1C(=O)N[C@@H]1[C@H]2CC[C@H](C2)[C@@H]1C(=O)NCc1cccc(C)c1 [Example 115] | 94 | 220
6 | CCCNC(=O)[C@H]1[C@@H]2CC[C@@H](C2)[C@H]1NC(=O)c1cc(O[C@H]2CC[C@@](C)(C(=O)O)CC2)c(C#N)cc1OC [Example 116, (1S,4s)-4-(2-Cyano-4-methoxy-5-(((1S,2R,3S,4R)-3-(propylcarbamoyl)bicyclo[2.2.1]heptan-2-yl)carbamoyl)phenoxy)-1-methylcyclohexane-1-carboxylic acid] | 106 | 860
7 | CCCCCCNC(=O)[C@H]1[C@@H]2CC[C@@H](C2)[C@H]1NC(=O)c1cc(O[C@H]2CC[C@@](C)(C(=O)O)CC2)c(C#N)cc1OC [Example 117] | 100 | 110
8 | COc1cc(C#N)c(O[C@H]2CC[C@@](C)(C(=O)O)CC2)cc1C(=O)N[C@@H]1[C@H]2CC[C@H](C2)[C@@H]1C(=O)NC[C@H](C)c1ccccc1 [Example 118] | 99 | 43
9 | COc1cc(C#N)c(O[C@H]2CC[C@@](C)(C(=O)O)CC2)cc1C(=O)N[C@@H]1[C@H]2CC[C@H](C2)[C@@H]1C(=O)N[C@@H](C)C(C)(C)C [Example 119] | 99 | 560
10 | COc1cc(C#N)c(O[C@H]2CC[C@@](C)(C(=O)O)CC2)cc1C(=O)N[C@@H]1[C@H]2CC[C@H](C2)[C@@H]1C(=O)N[C@H](C)C1CCCCC1 [Example 120] | 95 | 
11 | COc1cc(C#N)c(O[C@H]2CC[C@@](C)(C(=O)O)CC2)cc1C(=O)N[C@@H]1[C@H]2CC[C@H](C2)[C@@H]1C(=O)NC1CCCCC1 [Example 121] | 98 | 130
12 | COc1cc(C#N)c(O[C@H]2CC[C@@](C)(C(=O)O)CC2)cc1C(=O)N[C@@H]1[C@H]2CC[C@H](C2)[C@@H]1C(=O)NCCCOC(C)C [Example 122] | 71 | 1300
13 | COc1cc(C#N)c(O[C@H]2CC[C@@](C)(C(=O)O)CC2)cc1C(=O)N[C@@H]1[C@H]2CC[C@H](C2)[C@@H]1C(=O)NCc1ccc(F)c(F)c1 [Example 123] | 107 | 720
14 | COc1cc(C#N)c(O[C@H]2CC[C@@](C)(C(=O)O)CC2)cc1C(=O)N[C@@H]1[C@H]2CC[C@H](C2)[C@@H]1C(=O)NC[C@H]1C[C@@H](C)C1 [Example 124] | 101 | 160
15 | COc1cc(C#N)c(O[C@H]2CC[C@@](C)(C(=O)O)CC2)cc1C(=O)N[C@@H]1[C@H]2CC[C@H](C2)[C@@H]1C(=O)NC[C@@H](C)c1ccccc1 [Example 125] | 116 | 16
16 | CCC(C)(C)NC(=O)[C@H]1[C@@H]2CC[C@@H](C2)[C@H]1NC(=O)c1cc(O[C@H]2CC[C@@](C)(C(=O)O)CC2)c(C#N)cc1OC [Example 126] | 98 | 47
17 | COc1cc(C#N)c(O[C@H]2CC[C@@](C)(C(=O)O)CC2)cc1C(=O)N[C@@H]1[C@H]2CC[C@H](C2)[C@@H]1C(=O)N[C@@H](C)C(C)C [Example 127] | 71 | 990
18 | COc1cc(C#N)c(O[C@H]2CC[C@@](C)(C(=O)O)CC2)cc1C(=O)N[C@@H]1[C@H]2CC[C@H](C2)[C@@H]1C(=O)NC1CCC(C)(C)CC1 [Example 128] | 88 | 46
19 | COc1cc(C#N)c(O[C@H]2CC[C@@](C)(C(=O)O)CC2)cc1C(=O)N[C@@H]1[C@H]2CC[C@H](C2)[C@@H]1C(=O)NCC(C)(C)OC [Example 129] | 107 | 240
20 | COc1cc(C#N)c(O[C@H]2CC[C@@](C)(C(=O)O)CC2)cc1C(=O)N[C@@H]1[C@H]2CC[C@H](C2)[C@@H]1C(=O)NCCC(C)(C)C [Example 130] | 95 | 78
21 | COc1cc(C#N)c(O[C@H]2CC[C@@](C)(C(=O)O)CC2)cc1C(=O)N[C@@H]1[C@H]2CC[C@H](C2)[C@@H]1C(=O)NC[C@@H](F)c1ccccc1 [Example 131] | 99 | 84
22 | COc1cc(C#N)c(O[C@H]2CC[C@@](C)(C(=O)O)CC2)cc1C(=O)N[C@@H]1[C@H]2CC[C@H](C2)[C@@H]1C(=O)NCCCC1CC1 [Example 132] | 113 | 
23 | COc1cc(C#N)c(O[C@H]2CC[C@@](C)(C(=O)O)CC2)cc1C(=O)N[C@@H]1[C@H]2CC[C@H](C2)[C@@H]1C(=O)NCCC1CC1 [Example 133] | 100 | 450
24 | COc1cc(C#N)c(O[C@H]2CC[C@@](C)(C(=O)O)CC2)cc1C(=O)N[C@@H]1[C@H]2CC[C@H](C2)[C@@H]1C(=O)N[C@H]1CCCC[C@H]1CC(F)(F)F [Example 134] | 104 | 44
25 | COc1cc(C#N)c(O[C@H]2CC[C@@](C)(C(=O)O)CC2)cc1C(=O)N[C@@H]1[C@H]2CC[C@H](C2)[C@@H]1C(=O)NCCCF [Example 135] | 76 | 
26 | COc1cc(C#N)c(O[C@H]2CC[C@@](C)(C(=O)O)CC2)cc1C(=O)N[C@@H]1[C@H]2CC[C@H](C2)[C@@H]1C(=O)NCc1cc(C)ccc1C [Example 136] | 102 | 29
27 | COc1cc(C#N)c(O[C@H]2CC[C@@](C)(C(=O)O)CC2)cc1C(=O)N[C@@H]1[C@H]2CC[C@H](C2)[C@@H]1C(=O)NCC1CCOCC1 [Example 137] | 93 | > 2300
28 | COc1cc(C#N)c(O[C@H]2CC[C@@](C)(C(=O)O)CC2)cc1C(=O)N[C@@H]1[C@H]2CC[C@H](C2)[C@@H]1C(=O)NCC(C)(C)CO [Example 138] | 100 | 1200
29 | COc1cc(C#N)c(O[C@H]2CC[C@@](C)(C(=O)O)CC2)cc1C(=O)N[C@@H]1[C@H]2CC[C@H](C2)[C@@H]1C(=O)NC1CCCC1 [Example 139] | 95 | 160
30 | COc1cc(C#N)c(O[C@H]2CC[C@@](C)(C(=O)O)CC2)cc1C(=O)Nc1cc(Cl)ccc1C(=O)NCC1CCCCCC1 [Example 157, (1s,4s)-4-(5-((5-Chloro-2-((cycloheptylmethyl)carbamoyl)phenyl)carbamoyl)-2-cyano-4-methoxyphenoxy)-1-methylcyclohexane-1-carboxylic acid] | 118 | 88
